Assay results published in patent US4178371A, “Tetrapeptide derivatives” (Reckitt & Colman Products Limited, priority 1977, dated 1979).

How the values were obtained:
mouse = mouse phenyl-quinone anti writhing test of Hendershot et al (H & F); assay type: in vivo; conditions: i.v.
Description: (§1) J. Pharmacol, and Chemotherapy 33. 266-276 (1968). […] 13, 266 (1963).

opiate receptor sites = conditions: isolated guinea pig ileum twitch response, dose response curve compared with Met enkephalin
Description: The test used for the detection of their agonist activity at opiate receptor sites is that employing the transmurally stimulates guinea pig ileum preparation described in Kosterlitz et al., Brit. J. Pharmacol, and Chemotherapy 33. 266-276 (1968). […] Exp. Ther. 125, 237 (1959) and by the rat tail flick test (intravenous administration) according to Jansen et al., Arzneim Forsch. 13, 266 (1963).
In the above mentioned test method of Kosterlitz et al male or female guinea pigs (Duncan Hartley strain) are killed by a blow on the head and a portion of the ileum removed and set up in an isolated organ bath of 50 ml volume. A `twitch` response is produced by low frequency (0.1 Hz) stimulation with 0.5 msec rectilinear pulses. A test compound is dissolved in distilled water to produce a stock solution of concentration 1 mg/ml. Serial dilutions are carried out using Krebs solution to produce concentrations of 10 μg, 1 μg and 0.1 μg/ml. The compound is tested by adding between 0.1-0.3 ml of the solutions to the organ bath. A dose response curve is then drawn and compared with that for Met enkephalin.

rat = rat tail flick test (R.T.F.), intravenous administration; assay type: in vivo; conditions: hot water 55° as nociceptive stimulus, i.v.
Procedure: as §1
In the rat tail flick test hot water (maintained at 55°±1°C.) is used as the nociceptive stimulus.

| SMILES | H & F ED50 (mouse) | G.P.I. Potency (X Met enkephalin) (opiate receptor sites) | R.T.F. ED50 (rat) |
| --- | --- | --- | --- |
| CC(=O)NCCNC(=O)[C@H](Cc1ccccc1)NC(=O)CNC(=O)[C@@H](C)NC(=O)[C@@H](N)Cc1ccc(O)cc1 [Example 1, L-Tyrosyl-D-alanylglycyl-L-phenylalanin-2-acetamidoethylamide] | 0.01 mg/kg | 2.6 X Met enkephalin | – |
| C[C@@H](NC(=O)[C@@H](N)Cc1ccc(O)cc1)C(=O)NCC(=O)N(C)[C@@H](Cc1ccccc1)C(=O)NCCCN(C)C [Example 2, L-Tyrosyl-D-alanylglycyl-N-methyl-L-phenylalanine-3-dimethylaminopropylamide] | 0.28 mg/kg | 7.2 X Met enkephalin | 2.0 mg/kg |
| C[C@@H](NC(=O)[C@@H](N)Cc1ccc(O)cc1)C(=O)NCC(=O)N(C)[C@@H](Cc1ccccc1)C(=O)NCCN(C)C [Example 4, L-Tyrosyl-D-alanylglycyl-N-methyl-L-phenylalanine-2-dimethylaminoethylamide] | 0.003 mg/kg | 8.5 X Met enkephalin | 1.4 mg/kg |
| C[C@@H](NC(=O)[C@@H](N)Cc1ccc(O)cc1)C(=O)NCC(=O)N(C)[C@@H](Cc1ccccc1)C(=O)NCCN [Example 6, L-Tyrosyl-D-alanylglycyl-N-methyl-L-phenylalanine-2-aminoethylamide] | 0.028 mg/kg | 13.0 X Met enkephalin | 0.37 mg/kg |
| C[C@@H](NC(=O)[C@@H](N)Cc1ccc(O)cc1)C(=O)NCC(=O)N(C)[C@@H](Cc1ccccc1)C(=O)NCCCC(=O)N(C)c1ccccc1 [Example 19, HTyrDAlaGlyMePheNH(CH2)3 CONMePh] | – | 23.2 X Met enkephalin | – |
| C[C@@H](NC(=O)[C@@H](N)Cc1ccc(O)cc1)C(=O)NCC(=O)N(C)[C@@H](Cc1ccccc1)C(=O)NCC[N+](C)(C)[O-] [Example 22, HTyrDAlaGlyMePheNH(CH 2)2 N(O)Me2] | – | 6.5 X Met enkephalin | – |
